Source: article PMC4434089 (Biotechnology, Biotechnological Equipment, 2014)
Values joined by “and” are separate entries in the source; they are usually repeats but may differ in a detail not shown here. Equal entries are not always repeated. Marks after values point to notes of the source that are not given here.

Key:
[1] = test system: amylin-mediated cytotoxicity; design: method as in PMID 20093026; conditions: cited from earlier work
[2] = test system: amylin; test: NTA of amylin aggregation, alone or with amylin derivatives; format: biochemical, human; conditions: for implied effect on fibrillogenesis of amylin: NTA compared with previously published reports; for Concentration of aggregates 100–150 nm, 10 min / Concentration of aggregates 200–300 nm, 10 min / Concentration of aggregates 150–200 nm, 10 min / Concentration of aggregates 100–150 nm, 24 h / Concentration of aggregates 200–300 nm, 24 h / Concentration of aggregates 150–200 nm, 24 h: amylin 50 μmol L^−1 alone (A) or with 250 μmol L^−1 derivative, pH 7.4, duplicate; for Concentration of aggregates 100–150 nm, 10 min: 10 mmol L^−1 sodium phosphate, 50 mmol L^−1 NaCl; for Concentration of aggregates 100–150 nm, 10 min / Concentration of aggregates 150–200 nm, 10 min: p < 0.05 less than A: n1, n5, m5; for Concentration of aggregates 200–300 nm, 10 min: p < 0.05 less than A: n1, n3, n5, m1, m2, m3, m4, m5; for Concentration of aggregates 100–150 nm, 24 h: p < 0.05 less than A: n1, n2, m5, significantly more: m2; for Concentration of aggregates 200–300 nm, 24 h: p < 0.05 less than A: n1, n2, n3, n4, n5, m5; for Concentration of aggregates 150–200 nm, 24 h: p < 0.05 less than A: n1, n2, n5, m5; for number of 200–300 nm aggregates at 24 h vs amylin only: amylin:derivative 50:250 μmol L^−1, p < 0.05; for effect on amylin aggregation over 24 h: all size ranges, amylin:derivative 50:250 μmol L^−1, vs amylin only; for concentration of 200–300 nm aggregates, with derivative: similar to or more than amylin only
Procedure: NTA measurements were performed with a NanoSight LM20 instrument (NanoSight, United Kingdom) equipped with a 640 nm laser and a temperature controlled sample chamber. […] The sample temperature was maintained at 37 °C for the entire duration of the experiment. These experimental conditions were similar to that used for a previously reported cytotoxicity experiment,[73] thus allowing correlation of results obtained from the two techniques. […] Once again, samples were maintained at 37 °C and 60 s video footage were recorded every 10 min for the first hour and then at 24 h. All videos were captured with the single shutter and gain modes. Analysis was performed using NanoSight NTA version 2.2 software with a viscosity setting of 0.70.

[3] = test system: full length amylin; design: method as in 2 sources, one per row (each row's own in cited_ref): ref 58 = [58]; PMID 14565847; doi:10.1042/BJ20030852; Jaikaran E Nilsson MR Clark A Biochem J. 2004 377 709 716 14565847 10.1042/BJ20030852 PMC1223903 ||| ref 68, 93 = [68]; PMID 12054816; doi:10.1016/S0022-2836(02)00164-X; Scrocchi LA Chen Y Waschuk S Wang F Cheung S Darabie AA McLaurin J Fraser PE J Mol Biol. 2002 318 697 706 12054816 10.1016/S0022-2836(02)00164-X || [93]; PMID 12648568; doi:10.1016/s1047-8477(02)00630-5; Scrocchi LA Ha K Chen Y Wu L Wang F Fraser PE J Struct Biol. 2003 141 218 227 http://dx.doi.org/10.1016/s1047-8477(02)00630-5 12648568 10.1016/s1047-8477(02)00630-5; conditions: cited from earlier work
[4] = test system: amylin; design: method as in 2 sources, ref 23 = [23]; PMID 9878384; doi:10.1006/jmbi.1998.2299; Goldsbury C Kistler J Aebi U Arvinte T Cooper GJS J Mol Biol. 1999 285 33 39 9878384 10.1006/jmbi.1998.2299 ||| ref 26 = [26]; PMID 9216085; doi:10.1006/jsbi.1997.3858; Goldsbury CS Cooper GJS Goldie KN Muller SA Saafi EL Gruijters WTM Misur MP J Struct Biol. 1997 119 17 27 http://dx.doi.org/10.1006/jsbi.1997.3858 9216085 10.1006/jsbi.1997.3858; conditions: cited from earlier work

| Substance | reduction of amylin-mediated cytotoxicity [1] | implied effect on fibrillogenesis of amylin [2] | Concentration of aggregates 100–150 nm, 10 min ([2]; NTA, 10 min, 37 °C) | Concentration of aggregates 200–300 nm, 10 min ([2]; NTA, 10 min, 37 °C) | Concentration of aggregates 150–200 nm, 10 min ([2]; NTA, 10 min, 37 °C) | Concentration of aggregates 100–150 nm, 24 h ([2]; NTA, 37 °C) | Concentration of aggregates 200–300 nm, 24 h ([2]; NTA, 37 °C) | Concentration of aggregates 150–200 nm, 24 h ([2]; NTA, 37 °C) | number of 200–300 nm aggregates at 24 h vs amylin only ([2]; NTA) | effect on amylin aggregation over 24 h ([2]; NTA) | inhibitory effect on amylin-mediated cytotoxicity [1] | concentration of 200–300 nm aggregates, with derivative ([2]; NTA) | further results |
| --- | --- | --- | --- | --- | --- | --- | --- | --- | --- | --- | --- | --- | --- |
| NTAT [n1] | more than 40% | inhibit fibrillogenesis | 0.5* ×10^7 aggregates/mL | 0.4* ×10^7 aggregates/mL | 0.5* ×10^7 aggregates/mL | 0.9* ×10^7 aggregates/mL | 0.8* ×10^7 aggregates/mL | 1.1* ×10^7 aggregates/mL | significantly lower than in samples containing amylin only | significantly less than that observed in samples containing disaggregated amylin only | – | – | – |
| FLVHSS [n3] | more than 40% | increase fibrillogenesis of amylin to an aggregate that is larger than 1000 nm | 2.0 ×10^7 aggregates/mL | 1.4* ×10^7 aggregates/mL | 1.2 ×10^7 aggregates/mL | 3.4 ×10^7 aggregates/mL | 1.9* ×10^7 aggregates/mL | 2.1 ×10^7 aggregates/mL | significantly lower than in samples containing amylin only | small amount of aggregates of all size ranges which increases only marginally over 24 h | – | – | fibril formation of full length amylin in presence of derivative [3]: fibril formation of full length amylin was enhanced |
| Amylin: chemically synthesized full-length human amylin, 37 amino acid long peptide (KCNTATCATQRLANFLVHSSNNFGAILSSTNVGSNTY; Islet amyloid polypeptide; UniProt P10997 34-70, looked up) [reference compound] | – | – | 5.7 ×10^7 aggregates/mL | 7.0 ×10^7 aggregates/mL | 5.4 ×10^7 aggregates/mL | 2.9 ×10^7 aggregates/mL | 2.7 ×10^7 aggregates/mL | 2.5 ×10^7 aggregates/mL | – | – | – | – | amylin growth rate (AFM) ([4]; AFM): 1.1 nm/min; mass-per-length (MPL) of amylin protofibril ([4]; STEM): 10 kDa nm^−1; approximate rate of amylin aggregation ([4]; estimated from literature AFM and STEM values): ~11 kDa min^−1; critical concentration of 200–300 nm aggregates for amylin-mediated cytotoxicity ([2]; NTA correlated to cytotoxicity data, suggested): more than 2.1 × 10^7 aggregates per millilitre; size of toxic species of amylin ([2]; NTA correlated to previously published cytotoxicity (ref 73), tentatively suggested): 200–300 nm; predominant aggregate size ([2]; NTA, amylin 50 μmol L^−1 alone, 37 °C, pH 7.4, over 24 h): 150–200 nm and 200–300 nm; completion of aggregation ([2]; NTA, amylin alone): complete aggregation of amylin occurs within the first hour; concentration of 100–150, […]–200 and 200–300 nm aggregates after the first hour ([2]; NTA, amylin alone, stable up until 24 h): 2.5 × 10^7 – 3.0 × 10^7 aggregates per millilitre; total concentration of aggregates ([2]; initial NTA, 50 μmol L^−1 amylin): 3.12 × 10^8 aggregates per millilitre |
| STNVGS* [m5] | more than 40% | inhibit fibrillogenesis | 0.9* ×10^7 aggregates/mL | 0.8* ×10^7 aggregates/mL | 0.8* ×10^7 aggregates/mL | 1.6* ×10^7 aggregates/mL | 1.4* ×10^7 aggregates/mL | 1.3* ×10^7 aggregates/mL | significantly lower than in samples containing amylin only | significantly fewer amylin aggregates of all size ranges | – | – | – |
| TQRLA* [m2] | – | – | 3.9 ×10^7 aggregates/mL | 2.6* ×10^7 aggregates/mL | 2.4 ×10^7 aggregates/mL | 3.6** ×10^7 aggregates/mL | 4.6 ×10^7 aggregates/mL | 7.9 ×10^7 aggregates/mL | – | – | not to have an inhibitory effect on amylin-mediated cytotoxicity | ≥ 2.7 × 10^7 aggregates per millilitre | – |
| STNVGS [n5] | more than 40% | increase fibrillogenesis of amylin to an aggregate that is larger than 1000 nm | 0.1* ×10^7 aggregates/mL | 0.5* ×10^7 aggregates/mL | 0.1* ×10^7 aggregates/mL | 2.4 ×10^7 aggregates/mL | 2.0* ×10^7 aggregates/mL | 1.4* ×10^7 aggregates/mL | significantly lower than in samples containing amylin only | small amount of aggregates of all size ranges which increases only marginally over 24 h | – | – | – |
| FLVHSS* [m3] | – | – | 2.1 ×10^7 aggregates/mL | 2.1* ×10^7 aggregates/mL | 1.6 ×10^7 aggregates/mL | 5.9 ×10^7 aggregates/mL | 4.7 ×10^7 aggregates/mL | 3.9 ×10^7 aggregates/mL | – | – | not to have an inhibitory effect on amylin-mediated cytotoxicity | ≥ 2.7 × 10^7 aggregates per millilitre | – |
| NFGAIL* [m4] | – | – | 2.7 ×10^7 aggregates/mL | 1.6* ×10^7 aggregates/mL | 1.5 ×10^7 aggregates/mL | 4.1 ×10^7 aggregates/mL | 3.3 ×10^7 aggregates/mL | 2.8 ×10^7 aggregates/mL | – | – | not to have an inhibitory effect on amylin-mediated cytotoxicity | ≥ 2.7 × 10^7 aggregates per millilitre | – |
| TQRLA [n2] | more than 40% | increase fibrillogenesis of amylin to an aggregate that is larger than 1000 nm | 4.3 ×10^7 aggregates/mL | 3.4 ×10^7 aggregates/mL | 2.5 ×10^7 aggregates/mL | 1.5* ×10^7 aggregates/mL | 2.1* ×10^7 aggregates/mL | 1.5* ×10^7 aggregates/mL | significantly lower than in samples containing amylin only | – | – | – | concentrations of 100–150, […]–200 and 200–300 nm aggregates at 10 min vs amylin only ([2]; NTA, 10 min, amylin:derivative 50:250 μmol L^−1, unpaired t-test): not significantly different |
